# Measured values published in article PMC7156367, “Cell surface processing of the P1 adhesin of Mycoplasma pneumoniae identifies novel domains that bind host molecules” (Scientific Reports, 2020).
# Entries after “also recorded” stand apart in the source; their conditions may differ. Where a SMILES comes first, the peptide text is derived from it.
# What was measured:
# [1] = system: Glu-plasminogen; test: Microtitre plate binding assay (ELISA), plasminogen; parameters: species or system human; conditions: 15 µg/ml of C-terminal P1 fragments bound to wells, absorbance 450 nm (620 nm reference), eight replicates, P1-15 with N-terminal biotin tag
# Description: (§1) Human proteins used for ELISA include: plasma fibrinogen (Code: F3879), plasma fibronectin (Code: 11051407001), Glu-plasminogen (Code: P7999), vitronectin (Code: SRP3186), laminin (Code: L6274), and lactoferrin (Code: L1294) which were all supplied by Sigma.
# (§2) Binding affinity measured by ELISA was performed as described previously. Recombinant protein RP15 was produced as described[55] and both C-terminal peptides were synthesised by Chempeptide Limited (China). P1-30 (^1597[…]^1627) without any tags, but P1-15 (^1613PGAPKPPVQPPKKPA^1627) was sequenced with an N-terminal biotin tag.
# (§3) 15 µg/ml of C-terminal P1 fragments were bound to wells and incubated with different host proteins. Wells were then incubated with different antiserum raised against the different host proteins at the following dilutions (all from Sigma): anti-fibrinogen 1:3000, anti-fibronectin 1:1000, anti-plasminogen: 1:2500, anti-vitronectin 1:5000, anti-laminin 1:750, and anti-lactoferrin 1:5,000. These incubations were followed by incubations with anti-rabbit IgG (Dako) or anti-goat IgG (both 1:2,000). Detection was measured by adding Tetramethylbenzidine (Sigma) followed by 1 M HCl, and absorbance was measured at 450 nm (620 nm as reference).
# [2] = system: plasma fibronectin; test: Microtitre plate binding assay (ELISA), fibronectin; parameters: species or system human; conditions: 15 µg/ml of C-terminal P1 fragments bound to wells, absorbance 450 nm (620 nm reference), eight replicates, P1-15 with N-terminal biotin tag
# Description: as §1, §2, §3
# [3] = system: plasma fibrinogen; test: Microtitre plate binding assay (ELISA), fibrinogen; parameters: species or system human; conditions: 15 µg/ml of C-terminal P1 fragments bound to wells, absorbance 450 nm (620 nm reference), eight replicates, P1-15 with N-terminal biotin tag
# Description: as §1, §2, §3
# [4] = system: vitronectin; test: Microtitre plate binding assay (ELISA), vitronectin; parameters: species or system human; conditions: 15 µg/ml of C-terminal P1 fragments bound to wells, absorbance 450 nm (620 nm reference), eight replicates, P1-15 with N-terminal biotin tag
# Description: as §1, §2, §3
# [5] = system: laminin; test: Microtitre plate binding assay (ELISA), laminin; parameters: species or system human; conditions: 15 µg/ml of C-terminal P1 fragments bound to wells, absorbance 450 nm (620 nm reference), eight replicates, P1-15 with N-terminal biotin tag
# Description: as §1, §2, §3
# [6] = system: lactoferrin; test: Microtitre plate binding assay (ELISA), lactoferrin; parameters: species or system human; conditions: 15 µg/ml of C-terminal P1 fragments bound to wells, absorbance 450 nm (620 nm reference), eight replicates, P1-15 with N-terminal biotin tag
# Description: as §1, §2, §3
# [7] = system: cytokeratin 7; test: Affinity chromatography of A549 lysate on P1-15, cytokeratin 7; assay type: binding, human; conditions: biotinylated P1-15 on avidin agarose vs uncoupled avidin agarose control, native A549 cell lysate
# Description: (§4) The C-terminal sequence of P1 (P1-15) was synthesised with an N-terminal biotin tag by Chempeptide Limited (China). Affinity chromatography was performed similar to the section above. In brief, 1 mg of the peptide was added to Avidin Agarose beads for 16 h at 4 °C. The beads were washed four times (5 ml per wash) with PBS before being incubated with native A549 cell lysates (harvested in 1% w/v C7BzO in PBS) for 16 h at 4 °C. Non-binding proteins were washed from the column with four washes (5 ml per wash) of PBS and protein complexes with an affinity to the peptide were eluted from the column with 7 M urea, 2 M thiourea, 40 mM Tris-HCl, and 1% (w/v) C7BzO (4 times of 2 ml). Eluents were concentrated with a Macrosep® 3 kDa cutoff centrifugal device (Pall), precipitated with acetone, and separated by 1D-SDS PAGE. The whole lane was divided into sections, in-gel digested with trypsin, and analysed by LC-MS/MS as described above.
# [8] = system: cytokeratin 8; test: Affinity chromatography of A549 lysate on P1-15, cytokeratin 8; assay type: binding, human; conditions: biotinylated P1-15 on avidin agarose vs uncoupled avidin agarose control, native A549 cell lysate
# Description: as §4
# [9] = system: cytokeratin 18; test: Affinity chromatography of A549 lysate on P1-15, cytokeratin 18; assay type: binding, human; conditions: biotinylated P1-15 on avidin agarose vs uncoupled avidin agarose control, native A549 cell lysate
# Description: as §4
# [10] = system: vimentin; test: Affinity chromatography of A549 lysate on P1-15, vimentin; assay type: binding, human; conditions: biotinylated P1-15 on avidin agarose vs uncoupled avidin agarose control, native A549 cell lysate
# Description: as §4
# [11] = system: glyceraldehyde-3-phosphate dehydrogenase; test: Affinity chromatography of A549 lysate on P1-15, glyceraldehyde-3-phosphate dehydrogenase; assay type: binding, human; conditions: slice 3; biotinylated P1-15 on avidin agarose vs uncoupled control; native A549 cell lysate
# Description: as §4
# [12] = system: panel of host proteins; test: Microtitre binding assays, panel of host proteins; parameters: species or system human; conditions: 15 µg/ml of C-terminal P1 fragments bound to wells
# Description: as §1, §2, §3
# [13] = target: T1, plasminogen (Homo sapiens, UniProt P00747); test: Microscale thermophoresis, binding to plasminogen
# T1 construct: purchased Merck Millipore (Code 528175) or Sigma (Glu-plasminogen, Code P7999); host or cells: human plasma
# Description: (§5) Binding affinities to fluorescent labelled host proteins was measured by microscale thermophoresis as described in[72]. Microscale thermophoresis was set to 30 s and samples were scanned with 40%, 60% and 80% MST Power. Dissociation constants were determined from generated dissociation curves with set hot/cold or thermophoresis settings. As a control, a scrambled version of the C-terminal P1 peptide ([…]) was synthesised by Chempeptide Limited (China) without any tags and binding affinities was measured.
# [14] = target: T2, fetuin (Bos taurus, UniProt P12763); test: Microscale thermophoresis, binding to fetuin
# T2 construct: purchased Sigma F3004
# T2 sequence (P12763 19-359): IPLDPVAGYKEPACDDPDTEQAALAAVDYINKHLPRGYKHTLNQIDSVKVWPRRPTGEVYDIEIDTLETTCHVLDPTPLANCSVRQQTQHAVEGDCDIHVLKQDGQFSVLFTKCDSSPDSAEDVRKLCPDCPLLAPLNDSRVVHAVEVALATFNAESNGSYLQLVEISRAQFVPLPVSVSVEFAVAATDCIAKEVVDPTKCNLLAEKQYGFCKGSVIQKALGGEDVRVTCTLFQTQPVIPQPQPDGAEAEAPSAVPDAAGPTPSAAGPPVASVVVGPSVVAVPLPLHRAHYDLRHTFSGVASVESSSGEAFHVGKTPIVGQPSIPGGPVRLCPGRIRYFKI
# Description: as §5
# [15] = parameters: method as in PMID 28894125; conditions: ref [12]; cited from earlier work
# [16] = listed as 1613PGAPKPPVQPPKKPA^1627
compound,measurement,setting,value
"PGAPKPPVQPPKKPA [P1-15, C-terminal 15 amino acids of P1, synthesised chemically, N-terminal biotin tag]",binding to plasminogen,[1],only bound plasminogen in a dose dependent manner; also recorded: bound plasminogen in a dose-responsive manner
same,binding to fibronectin,[2],"failed to bind laminin, lactoferrin, fibronectin"
same,binding to fibrinogen,[3],"failed to bind laminin, lactoferrin, fibronectin, and fibrinogen"
same,binding to vitronectin,[4],also bound to vitronectin
same,binding to laminin,[5],failed to bind laminin
same,binding to lactoferrin,[6],"failed to bind laminin, lactoferrin"
same,"selective recovery / binding, cytokeratin 7",[7],selectively recovered
same,"selective recovery / binding, cytokeratin 7",[7]; [16],selectively bound
same,"selective recovery / binding, cytokeratin 8",[8],selectively recovered
same,"selective recovery / binding, cytokeratin 8",[8]; [16],selectively bound
same,"selective recovery / binding, cytokeratin 18",[9],selectively recovered
same,"selective recovery / binding, cytokeratin 18",[9]; [16],selectively bound
same,"selective recovery / binding, vimentin",[10],selectively recovered
same,"selective recovery / binding, vimentin",[10]; [16],selectively bound
same,recovery of glyceraldehyde-3-phosphate dehydrogenase,[11],also identified in the eluents from the control
same,binding to panel of host molecules,[12],bind a range of host molecules in a dose dependent manner
CC(C)[C@H](NC(=O)[C@@H]1CCCN1C(=O)[C@@H]1CCCN1C(=O)[C@H](CCCCN)NC(=O)[C@@H]1CCCN1C(=O)[C@H](C)NC(=O)CNC(=O)[C@@H]1CCCN1C(=O)[C@H](CCCCN)NC(=O)[C@@H]1CCCN1C(=O)[C@@H]1CCCN1C(=O)[C@@H](NC(=O)[C@@H]1CCCN1C(=O)[C@@H]1CCCN1C(=O)[C@H](CCCNC(=N)N)NC(=O)[C@@H]1CCCN1C(=O)[C@H](C)NC(=O)CNC(=O)[C@@H]1CCCN1C(=O)[C@H](CCCCN)NC(=O)[C@H](C)NC(=O)[C@H](C)NC(=O)[C@H](CO)NC(=O)[C@@H](N)[C@@H](C)O)C(C)C)C(=O)N[C@@H](CCC(N)=O)C(=O)N1CCC[C@H]1C(=O)N1CCC[C@H]1C(=O)N[C@@H](CCCCN)C(=O)N[C@@H](CCCCN)C(=O)N1CCC[C@H]1C(=O)N[C@@H](C)C(=O)O [P1-30] (H-TSAAKPGAPRPPVPPKPGAPKPPVQPPKKPA-OH),Kd,[13],554 ± 2.1 nM
"PKPPRAAPPKAPTPVPPGPASPVKKPKQAPG [scrambled version of P1-30, scrambled version of the C-terminal P1 peptide ([…])]","binding affinity in words, plasminogen",[13]; microscale thermophoresis,No binding affinity could be detected
same,"KD, plasminogen","[13]; microscale thermophoresis, fluorescent labelled host protein, 30 s, 40%, 60% and 80% MST Power",could not be assigned a KD value
same,"binding affinity in words, fetuin",[14],No binding affinity could be detected
same,"KD, fetuin","[14]; fluorescent labelled host protein, 30 s, 40%, 60% and 80% MST Power",could not be assigned a KD value
elongation factor Tu [Ef-Tu],affinity to heparin,[15],strong affinity to heparin
